Test results: patent US9864847B2, “Method for predicting the solubility of a molecule in a polymer at a given temperature” (priority 2014, dated 2018)

Tests used:
[1] = Difference in specific enthalpy and specific entropy (solid solution minus unmixed components) from DSC specific heats; format: physicochemical; details: indomethacin 2.5% by weight with PVP-K30
From the text: In practice, there is a lower limit to the temperature at which thermal analysis instruments such as DSC can provide accurate experimental data. As a result, it is not possible to experimentally obtain the necessary specific heats over all temperatures down to absolute zero, but instead they only be evaluated to a minimum temperature, denoted by Tmin. The experimental data can be used to construct a temperature-dependent difference in specific heats, denoted as ΔCP, which is defined as the difference between the specific heat of the solid solution minus the specific heat of the unmixed components in the same ratio, over the temperature range of Tmin to any higher temperature T for which experimental specific heat data is available. This is given by Δ[…]) (29) Because of the thermal analysis instrument limitations, ΔCP provides no data between absolute zero and Tmin, so it is necessary to estimate the values of specific heat differences at temperatures below Tmin. One way to do this is to extrapolate the plot of the experimentally obtained ΔCP vs. the temperature from Tmin to absolute zero. This can be done as follows. • Obtain the experimental values for ΔCP from Tmin up to at least temperature Tat which the solubility of the drug in the polymer is to be evaluated. • Construct an approximating function Δc that is a function of the temperature, which will be used to estimate ΔCP at temperatures lower than Tmin. • Fit the function Δc to the experimental values of ΔCP from Tmin to T using any appropriate method, such as linear or nonlinear regression. • Using the fitted equation for Δc, calculate values of Δc over temperatures from absolute zero to Tmin. These values will be used as substitutes for experimental specific heat difference for temperatures below Tmin. There is no theoretical model or equation that dictates the mathematical form of Δc, and more than one functional form can be chosen. […] One preferred form would be a sum of a constant plus exponentials, such as Δ[…]) (30) where a0, a1 . . . a8 are temperature independent parameters with values that can be determined or fit by nonlinear regression or other methods so Eq. (30) will be a good approximation to the experimental ΔCP vs. temperature data over the experimental temperature range. […] (The value for a4 was not determined because the coefficient multiplying the exponential a3 was zero. […] Using the values Δc calculated from Eq. (34) for temperatures from 0 to […], and the experimental values of ΔCP, values of Δ[…] calculated from Eq. (31) and (32), respectively, for various temperatures. For this combination of indomethacin and PVP-K30, the calculated specific enthalpy values at -10° C. and 25° C.

[2] = indomethacin / PVP-K30 at 25° C.; cited from earlier work
[3] = 25° C.
Procedure: The drug indomethacin and the polymer PVP-K30 were taken in various ratios, corresponding to weight percentages of indomethacin in the mixture of 2.5%, 10%, 15%, and 20%. DSC was performed on the pure indomethacin and pure PVP-K30, and the specific heat for each was obtained as a function of the temperature over the range of 220K to 310K. The DSC instrument provided reliable data as low as 220K, which was taken as Tmin. Solid solutions were formed by mixing the drug and polymer in a mortar and pestle, allowing them to stand at 130° C. (403 K) for 5 days, then allowing them to cool to room temperature. DSC was also performed to determine the specific heat of the solid solutions from 220K to 300K. All DSC was performed using a pinhole in the lid and was thus considered open pan, so the specific heats were considered to be obtained at constant pressure. All heating and cooling rates were 5° C. per minute. […]
The entire procedure was repeated for each indomethacin-PVP combinations (2.5% m 10%, 15% and 20% indomethacin by weight), including obtaining the adjustable parameters a0, a1 . . . a8 for each indomethacin/PVP-K30 combination. […] The values of ΔgSS at 25° C. were calculated for each drug-polymer ratio from Eq. (33), and subsequently used to calculate values of ΔgSS/f0.

Δhheat (calculated specific enthalpy difference) ([1]; 25° C. (298 K)): 18.347 J/g
Δsheat (calculated specific entropy difference) ([1]; 25° C. (298 K)): 0.0787 J/K/g
Δhheat (calculated specific enthalpy difference) ([1]; −10° C. (263 K)): 9.66 J/g
Δsheat (calculated specific entropy difference) ([1]; −10° C. (263 K)): 0.0479 J/K/g
maximum stable weight fraction of indomethacin in PVP-K30 solid solution [3]: 15 % by weight
indomethacin weight fraction at minimum of ΔgSS/f0 ([3]; PVP-K30, FIG. 4): approximately 0.15
SMILES: COc1ccc2c(c1)c(CC(=O)O)c(C)n2C(=O)c1ccc(Cl)cc1 [indomethacin]
interaction parameter χ [2]: 0.747
